Like-named read-outs stand apart in the source and are kept apart here.
Columns and labels:
[1] = target: T1, Aβ(1-42) (Homo sapiens, UniProt P05067); assay: Thioflavin T fluorimetric assay of Aβ(1-42) aggregation; type: biochemical; details: 10 μM Aβ(1-42); read-out: IC50, inhibiting Aβ(1-42) aggregation (thioflavin-T fluorimetric assay)
T1 construct: dissolving Aβ(1-42) HCl salt in hexafluoroisopropanol (HFIP)
Protocol: Aβ(1-42) was prepared for amyloid aggregation and toxicity assays by dissolving Aβ(1-42) HCl salt in hexafluoroisopropanol (HFIP), with brief sonication and vortexing. This solution of the Aβ(1-42) peptide in HIT was stored at 4° C.@2 mM. When required, an aliquot of this stock solution was freeze-dried and dissolved in DMSO to 200 times the required final assay concentration (e.g. 2 mM for a final assay concentration of 10 μM). A 20 mM stock solution of each test compound was prepared in DMSO, and aliquots of these solutions were used to prepare further stock solutions of each test compound in DMSO, ranging in concentration from 3 μM up to 10 mM. These stock solutions were prepared for use as and when required and stored at −20° C. (maximum of 3 freeze-thaw cycles). The 20 mM parent stock solutions were stored frozen at −20° C. The daughter plate is sealed with silver seal and incubated at 37° C. for 24 and 48 hours for the Thioflavin T assay (LeVine and Scholten 1999). The activity of compounds in inhibiting 10 μM Aβ(1-42) aggregation was assessed by using a thioflavin-T fluorimetric assay. At each timepoint, a 50 or 100 μl aliquot is taken from each well of the daughter plate and dispensed into a black 96 well plate. Equal volume (50 or 100 μl) Thioflavin T [40 μM] (in Glycine buffer [50 mM] —NaOH pH 8.5) is added to each well. The plate was shaken and fluorescence was recorded using the top reader setting (10×1 msec), using excitation and emission filters of 440 (±15) and 485 (±10) nm, respectively. Fluorescence readings from equivalent experiments were averaged and % amyloid formation was determined as follows: [formula] Activity of compounds in inhibiting 10 μM Aβ(1-42) aggregation using thioflavin-T fluorimetric assay

[2] = system: SH SY5Y cells; assay: Cell viability assay for amyloid toxicity using MTT reduction; type: cell-based; details: 10 μM Aβ(1-42), 24 h incubation, read-out: IC50, protecting SH SY5Y cells from a toxic insult of Aβ(1-42) (MTT reduction as measure of cell viability)
Protocol: Aβ(1-42) was prepared for amyloid aggregation and toxicity assays by dissolving Aβ(1-42) HCl salt in hexafluoroisopropanol (HFIP), with brief sonication and vortexing. This solution of the Aβ(1-42) peptide in HIT was stored at 4° C.@2 mM. When required, an aliquot of this stock solution was freeze-dried and dissolved in DMSO to 200 times the required final assay concentration (e.g. 2 mM for a final assay concentration of 10 μM).
A 20 mM stock solution of each test compound was prepared in DMSO, and aliquots of these solutions were used to prepare further stock solutions of each test compound in DMSO, ranging in concentration from 3 μM up to 10 mM. These stock solutions were prepared for use as and when required and stored at −20° C. (maximum of 3 freeze-thaw cycles). The 20 mM parent stock solutions were stored frozen at −20° C.
The activity of compounds in protecting SH SY5Y cells from a toxic insult of 10 μM Aβ(1-42) was assessed by using inhibition of MTT reduction as a measure of cell viability. An aliquot (3 μl) of test compound [various concentrations] in DMSO is added to 294 μl of Opti-Mem (containing 2% FBS, 1% Pen/Strep, 1% L-Gln) {daughter plate}. The well is mixed thoroughly. Then an aliquot (3 μl) of Aβ(1-42) [2 mM] is added to the daughter plate wells and again mixed thoroughly. 50 μl is then aspirated and dispensed into wells containing 50 μl media+SH SY5Ycells (cells are also plated in Opti-Mein, at ˜30,000 cells/well/50 μl). Final concentrations of compound on cells range from [50 μM] to [˜15 nM] with a final concentration of Aβ(1-42) of [10 μM].
Cell plates are incubated for 24 h and then the MTT assay (Shearman, 1999). is performed. […] The plate was shaken and the absorbance was recorded at both 570 nm and 650 nm. ΔA values were calculated by subtracting absorbance at 650 nm from absorbance at 570 nm, to reduce non-specific background absorbance. ΔA values from equivalent experiments were averaged and % cell viability was determined as follows: […]

T1 sequence (P05067 672-713): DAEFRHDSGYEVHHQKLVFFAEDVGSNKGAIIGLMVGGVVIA

IC50 [1] [µM] | Compound | IC50 ([2]; Homo sapiens, SH-SY5Y) [µM] | IC50 [2] [µM]
22 | CN(c1ccccc1)c1cnc(Nc2cccc(O)c2)nc1 [Example 11, 2-(3-Hydroxyphenylamino)-5-[phenyl(methyl)amino]pyrimidine] | 30 | 
 | Oc1cccc(Nc2ccc(Nc3cccc(O)c3)nn2)c1 [RS-0406, reference compound] |  | 40
8.5 | COc1cccc(Nc2cnc(Nc3ccc(Cl)c(Cl)c3)nc2)c1 [Example 10, 2-(3,4-Dichlorophenylamino)-5-(3-methoxyphenylamino)-pyrimidine] |  | 
5 | Oc1cccc(Nc2cnc(Nc3cccc(C(F)(F)F)c3)nc2)c1 [Example 8, 2-(3-Trifluoromethylphenylamino)-5-(3-hydroxyphenylamino)-pyrimidine] |  | 
13 | Oc1cccc(Nc2ncc(Nc3cccc(C(F)(F)F)c3)cn2)c1 [Example 4, 2-(3-Hydroxyphenylamino)-5-[3-(trifluoromethyl)phenylamino]-pyrimidine] |  | 
32 | Oc1cccc(Nc2cnc(Nc3cccc(O)c3)nc2)c1 [Example 2, 2,5-Bis-(3-hydroxyphenylamino)pyrimidine] | 14 | 

Source: US20100063077A1, “PYRIMIDINE DERIVATIVES FOR THE TREATMENT OF AMYLOID-RELATED DISEASES” (SENEXIS LIMITED, priority 2006, published 2010)
